The values that follow come from ChEMBL document CHEMBL1201862, “PubChem BioAssay data set” (2004).

Structures are written as SMILES.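 Cultured in 96-well plates, cells were exposed to test compound for 48 hours across five concentrations. The concentration for 50% growth inhibition is given as GI50.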 Calls of active or inactive are those of the source. Rule as the data show it: active = GI50 up to about 1.1 µM and inactive = higher. *1 amine or outer side, *2 acyl side, *3 side chain or, on linkers, in order; H or OH if unused. Where a SMILES comes first, the peptide text is derived from it. Bridges are numbered along the chain shown (N, C = ends). Roman numbers before positions name the chains, in order. [ ]: non-standard residue; d: D form. Actinocin(9to1) = Cc1c2oc3c(C)ccc(C(=O)[*:1])c3nc-2c(C(=O)[*:2])c(N)c1=O; NMeV = CN[CH](C(=O)O)C(C)C; Sar = CNCC(=O)O

Among the test systems are NCI-H226; UO-31; SNB-78; NCI-H522; U-251; M14; HCT-116; COLO 205; A549; K562; OVCAR-3; UACC-62; SK-OV-3; HCT-15; Malme-3M; PC-3; MOLT-4; T47D; Hs-578T; SR.
Holding throughout (assay): NCI-60 cell line screen, 48 h

`COc1c(O)ccc(/C=N/NC(=S)NCOCCOC(C)=O)c1OC`: the GI50 with NCI-H226, in the test with UO-31, with SNB-78, in the test on NCI-H522, in the test with U-251 and with M14 was > 100 µM (inactive) each time. Besides, the GI50 in the test with HCT-116, in the test on COLO 205, with A549, in the test on K562, in the test with OVCAR-3 and in the test on UACC-62 was > 100 µM (inactive) each time. Moreover, the GI50 with SK-OV-3 is > 100 µM (inactive); in the test with HCT-15, above 100 µM; in the test with Malme-3M, > 100 µM (inactive).
`O=C1c2ccccc2-n2c1nc1ccccc1c2=O` [TRYPTANTHRIN]: the GI50 is 30.9 µM (inactive) in the test with NCI-H226; 5.06 µM (inactive) in the test with UO-31; 15.3 µM (inactive) in the test on NCI-H522; 3.34 µM (inactive) in the test on U-251; 0.649 µM (active) with PC-3; 5.65 µM (inactive) in the test with M14. The GI50 in the test on MOLT-4 was 7.94 µM (inactive); in the test on HCT-116 it was 5.86 µM (inactive); in the test with T47D it was 8.87 µM (inactive); with Hs-578T it was 17.1 µM (inactive); in the test with SR it was 8.47 µM (inactive); in the test with COLO 205 it was 12.8 µM (inactive). For the same molecule, the GI50 in the test on A549 is 2.59 µM (inactive); in the test on K562, 3.18 µM (inactive); with OVCAR-3, 4.54 µM (inactive); with UACC-62, 3.69 µM (inactive); in the test with SK-OV-3, > 100 µM (inactive); with HCT-15, 3.6 µM. The GI50 with Malme-3M was 13.4 µM (inactive).
With `CCN1C[C@]2(C)CC[C@H](OC)C34C1C([C@H](OC(C)=O)[C@@H]32)[C@@]1(OC)C[C@H](OC)[C@H]2C[C@@H]4[C@@H]1[C@H]2O`, the GI50 in the test on NCI-H226, in the test on UO-31, in the test on SNB-78, with NCI-H522, in the test on U-251 and in the test with M14 was > 100 µM (inactive) throughout. For the same molecule, the GI50 was > 100 µM (inactive) in the test on MOLT-4; > 100 µM (inactive) in the test on HCT-116; 55.5 µM (inactive) in the test with COLO 205; > 100 µM (inactive) in the test with A549; 92.5 µM (inactive) in the test on K562; > 100 µM (inactive) in the test with UACC-62. The GI50 in the test with SK-OV-3 is > 100 µM (inactive); in the test on HCT-15 it was 87.5 µM; in the test on Malme-3M it was > 100 µM (inactive).
As to `Cc1ccc(/C=C2\CCCC(C(NO)c3ccc(C)cc3)C2=NO)cc1` (centres undefined), the GI50 was 57.4 µM (inactive) with UO-31; 60 µM (inactive) in the test with SNB-78; 28.5 µM (inactive) with NCI-H522; 55.2 µM (inactive) in the test with U-251; 26.4 µM (inactive) in the test with M14; 19.1 µM (inactive) with MOLT-4. Further, the GI50 with HCT-116 is 45.6 µM (inactive); with COLO 205, 19.1 µM (inactive); in the test with A549, 36.1 µM (inactive); in the test with K562, 33.8 µM (inactive); in the test on OVCAR-3 it was 16.7 µM (inactive); in the test on UACC-62 it was 89.5 µM (inactive). The GI50 was > 100 µM (inactive) with SK-OV-3, 36.3 µM in the test with HCT-15 and 52.2 µM (inactive) in the test on Malme-3M.
Turning to `Cc1c2oc3c(C)ccc(C(=O)NC4C(=O)NC(C(C)C)C(=O)N5CCCC5C(=O)N(C)CC(=O)N(C)C(C(C)C)C(=O)OC4C)c3nc-2c(C(=O)NC2C(=O)NC(C(C)C)C(=O)N3CCCC3C(=O)N(C)CC(=O)N(C)C(C(C)C)C(=O)OC2C)c(N)c1=O` (centres undefined) (I: TVP[Sar][NMeV] / II: TVP[Sar][NMeV]; ester I:1-I:C, II:1-II:C; linker I:N-II:N via Actinocin(9to1); configuration not given here), the GI50 in the test with NCI-H226 is 0.000891 µM (active); with UO-31 it was 0.0152 µM (active); with NCI-H522, < 0.0001 µM (active); in the test on U-251, < 0.0001 µM (active); with PC-3, 0.000428 µM (active); with M14, 0.00256 µM (active). Moreover, the GI50 with MOLT-4 was < 0.0001 µM (active); in the test on HCT-116, < 0.0001 µM (active); in the test on T47D it was 0.000507 µM (active); with Hs-578T it was 0.000143 µM (active); with SR, < 0.0001 µM (active); in the test on COLO 205, 0.000161 µM (active). In addition, the GI50 in the test with A549 was 0.000199 µM (active); in the test with K562, < 0.0001 µM (active); in the test with OVCAR-3, 0.00105 µM (active); with UACC-62, < 0.0001 µM (active); with SK-OV-3 it was 0.0017 µM (active); in the test on HCT-15, 0.0123 µM. Also, the GI50 in the test on Malme-3M was 0.000273 µM (active).
Take `NCC(NC(=O)OCc1ccccc1)C(=O)O` (centres undefined): the GI50 in the test on NCI-H226, in the test with UO-31, in the test with SNB-78, in the test with NCI-H522, in the test on U-251 and with M14 was > 50 µM (inactive) throughout. Besides, the GI50 in the test with MOLT-4, in the test with HCT-116, in the test with COLO 205, in the test with A549, in the test on K562 and with OVCAR-3 was > 50 µM (inactive) throughout. The GI50 was > 50 µM (inactive) in the test with UACC-62, > 50 µM (inactive) in the test on SK-OV-3, above 50 µM with HCT-15 and > 50 µM (inactive) with Malme-3M.
For `O=c1[nH]c(Br)nc2[nH]nnc12`, the GI50 with NCI-H226 is > 100 µM (inactive); in the test with UO-31 it was 11.7 µM (inactive); with NCI-H522, > 100 µM (inactive); in the test on U-251 it was 68.7 µM (inactive); in the test with PC-3, 69.5 µM (inactive); in the test with M14 it was 19.8 µM (inactive). In addition, the GI50 in the test on MOLT-4 was 2.73 µM (inactive); with HCT-116, 32 µM (inactive); with T47D it was 26.2 µM (inactive); in the test on Hs-578T, 38.3 µM (inactive); in the test with SR, 42.2 µM (inactive); with COLO 205, > 100 µM (inactive). Also, the GI50 in the test with A549 is > 100 µM (inactive); with K562 it was 9.4 µM (inactive); with OVCAR-3, > 100 µM (inactive); in the test on UACC-62, 15.9 µM (inactive); with SK-OV-3, 39.3 µM (inactive); in the test on HCT-15, above 100 µM. Further, the GI50 in the test with Malme-3M was 6.95 µM (inactive).
`COC(=O)CCCc1ccc2c(c1)CC1(C2)Cc2cc3c(cc2C1)CCCC3`: the GI50 in the test on NCI-H226 was 38.1 µM (inactive); in the test with UO-31, 86.7 µM (inactive); in the test with NCI-H522, 17.7 µM (inactive); in the test with U-251, 40.5 µM (inactive); in the test on PC-3, 36.8 µM (inactive); in the test with M14, 24.7 µM (inactive). In addition, the GI50 in the test on MOLT-4 is 11.6 µM (inactive); in the test with HCT-116 it was 3.8 µM (inactive); in the test on T47D, 50.7 µM (inactive); with Hs-578T it was 29.9 µM (inactive); with SR, < 0.01 µM (active); in the test on COLO 205 it was 20.5 µM (inactive). The GI50 in the test with A549 is 22.1 µM (inactive); in the test on K562 it was 22.9 µM (inactive); in the test with OVCAR-3, 27.5 µM (inactive); with UACC-62, 21.1 µM (inactive); with SK-OV-3, > 100 µM (inactive); in the test on HCT-15, 14 µM. Besides, in the test on Malme-3M, the GI50 was 37.6 µM (inactive).
Turning to `CCc1ccccc1NC(=O)C1=C(C)NC(C)=C(C(=O)Nc2c(CC)cccc2CC)C1c1ccc2c(c1)OCO2` (centres undefined), the GI50 in the test with NCI-H226 was 19.1 µM (inactive); with UO-31 it was 16.2 µM (inactive); in the test on SNB-78, 26.9 µM (inactive); in the test with NCI-H522, 16.2 µM (inactive); in the test on U-251, 14.6 µM (inactive); in the test on M14, 16.4 µM (inactive). Also, the GI50 is 19.1 µM (inactive) with MOLT-4; 16.8 µM (inactive) with HCT-116; 19.5 µM (inactive) in the test with COLO 205; 17.6 µM (inactive) with A549; 22.7 µM (inactive) in the test with K562; 17.8 µM (inactive) in the test on OVCAR-3. The GI50 with SK-OV-3 is 34.5 µM (inactive); with Malme-3M, 16.5 µM (inactive).
Turning to `COc1cc(CNCc2cc(OC)c(OC)c(OC)c2)cc(OC)c1OC`, the GI50 in the test with NCI-H226 is > 10 µM (inactive); with UO-31, > 10 µM (inactive); with NCI-H522, > 4.88 µM (inactive); with U-251, > 10 µM (inactive); with PC-3, > 10 µM (inactive); in the test with M14 it was > 10 µM (inactive). Further, the GI50 with MOLT-4 was > 5.7 µM (inactive); in the test on HCT-116, > 10 µM (inactive); in the test on T47D, > 10 µM (inactive); with Hs-578T, > 10 µM (inactive); in the test on SR, > 5.38 µM (inactive); with COLO 205 it was > 10 µM (inactive). Also, the GI50 was > 10 µM (inactive) in the test with A549; > 4.95 µM (inactive) in the test with K562; > 10 µM (inactive) in the test on OVCAR-3; > 10 µM (inactive) with UACC-62; > 10 µM (inactive) with SK-OV-3; above 10 µM in the test on HCT-15. For the same molecule, in the test with Malme-3M, the GI50 was > 10 µM (inactive).
For `CCOC(=O)C(O)(C(=O)OCC)c1cc(C(C)(C)C)c(O)c(C(C)(C)C)c1`, the GI50 is 16.4 µM (inactive) in the test with NCI-H226; 52.2 µM (inactive) in the test with UO-31; 36.9 µM (inactive) in the test with NCI-H522; 41 µM (inactive) in the test on U-251; 33.7 µM (inactive) with PC-3; 39 µM (inactive) with M14. Besides, the GI50 was 25.8 µM (inactive) in the test on MOLT-4; 35.1 µM (inactive) with HCT-116; 62.2 µM (inactive) in the test on T47D; 32.7 µM (inactive) in the test on Hs-578T; 33.6 µM (inactive) in the test on SR; 36.1 µM (inactive) in the test on COLO 205. For the same molecule, the GI50 in the test on A549 is 54.3 µM (inactive); with K562, 33.6 µM (inactive); in the test on OVCAR-3, 76.6 µM (inactive); with UACC-62, 22.9 µM (inactive); in the test with SK-OV-3, 70.3 µM (inactive); with HCT-15 it was 42 µM. The GI50 with Malme-3M was 42.2 µM (inactive).
